Earlier results as cited in patent publication US10022309B2, “Composition, comprising hydrofluoric acid, for inhibiting dental erosion” ([…], priority 2004, dated 2018).

How the values were obtained:
[1] = 24 h treatment (1.2% NaF or Duraphat varnish); then cola-drink pH 2.6 for 4 min
[2] = pre-treatment with 1% neutral NaF or 4% TiF4; 50 mM citric acid with calcium and phosphate, pH 3, 30 min; without treatment 4.5 um
[3] = aqueous solution

| Compound | hardness of enamel compared with untreated control [1] | mean lesion depth [2] [um] | pKa [3] |
| --- | --- | --- | --- |
| [F-].[Na+] [NaF, sodium fluoride] | improved | 3.5 | – |
| [F][Ti]([F])([F])[F] [TiF4, titanium tetrafluoride] | – | 2.7 | – |
| F [hydrofluoric acid] | – | – | 3.45 |
